Laboratory results from patent publication US8697869B2, “3-(heteroaryl-amino)-1,2,3,4-tetrahydro-9H-carbazole derivatives and their use as prostaglandin D2 receptor modulators” (Actelion Pharmaceuticals Ltd., priority 2010, dated 2014).

What was measured:
hCRTH2 receptor [1] = target: T1, hCRTH2 receptor (Homo sapiens (Human), UniProt Q9Y5Y4); experiment: hCRTH2 receptor membranes radioligand displacement assay (3H-PGD2); settings: 3H-PGD2 2.5 nM, HEK293-hCRTH2 membranes, Binding-Buffer with 0.1% BSA
T1 sequence (Q9Y5Y4 whole entry): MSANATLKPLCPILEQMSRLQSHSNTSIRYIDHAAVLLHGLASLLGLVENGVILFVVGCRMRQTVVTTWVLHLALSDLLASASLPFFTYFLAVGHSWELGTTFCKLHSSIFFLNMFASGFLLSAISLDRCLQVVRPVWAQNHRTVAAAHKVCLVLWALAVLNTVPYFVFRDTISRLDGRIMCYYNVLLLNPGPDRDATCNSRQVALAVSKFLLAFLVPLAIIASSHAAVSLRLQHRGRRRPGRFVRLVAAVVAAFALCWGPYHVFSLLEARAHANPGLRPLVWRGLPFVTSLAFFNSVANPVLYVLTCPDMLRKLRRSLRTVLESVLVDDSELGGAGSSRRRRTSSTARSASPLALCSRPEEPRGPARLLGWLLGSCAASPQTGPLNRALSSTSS
Protocol: Biological Assays: Preparation of hCRTH2 Receptor Membranes and Radioligand Displacement Assay:
(§1) First, recombinant HEK293-hCRTH2 cells were detached from culture plates into 5 ml buffer A/plate (Buffer A: 5 mM Tris, 1 mM MgCl2-6H2O pH=7.4) using a rubber policeman. Cells were then transferred into centrifugation tubes and centrifuged for 5 min at 400 g. The cell pellet was resuspended in the same buffer and tubes were frozen at −80° C. Cells were thawed and membrane fragments were generated by homogenization using a polytron homogenizer (30 seconds). The membrane fragments were then centrifuged at 3000 g for 20 minutes and resuspended in buffer C (Buffer C: 75 mM Tris, 25 mM MgCl2, 250 mM Saccharose pH 7.4). Aliquots of membrane fragements were stored at −20° C.
(§2) Binding assay was performed in a final assay volume of 250 μl. First, 25 μl of test compound, previously diluted in Binding-Buffer (Binding-Buffer: 50 mM Tris-Base, 100 mM NaCl, 1 mM EDTA, 0.1% BSA (protease free), 0.01% NaN3, 10 mM MnCl2 pH 7.0) was placed into each well. After addition of 75 μl Binding-Buffer, 50 μl of the radioligand ^3H-PGD2 (at 2.5 nM (220.000 dpm/well) from ANAWA ART0662) was added to each well. Binding assay was started by addition of 100 μl CRTH2 membrane fragments, reaching a final concentration of 20 μg/well. For non-specific binding, PGD2 was added to the reaction mixture to […] final concentration. This assay mix was incubated for 90 minutes at room temperature and then filtered through a GF/C filter 96-well plate which was pre-soaked for 3 hours in 0.5% polyethyleneimine (PEI). The filter-wells were washed three times with ice cold Binding-Buffer. Then, 40 μl of Microscint-40 (Packard) was added to each well and the retained radioactivity quantified in a Topcount (Packard).

hCRTH2 receptor [2] = target: T1, hCRTH2 receptor; experiment: Radioligand displacement assay in presence of human serum albumin (HSA); settings: 3H-PGD2 2.5 nM, Binding-Buffer with 0.5% HSA instead of 0.1% BSA
Protocol: as §1, §2
Radioligand Displacement Assay-Human Serum Albumin (HSA):
Radioligand displacement assay in presence of human serum albumin (HSA) was performed as described above, with following modifications. Binding-Buffer-HSA: Binding-buffer+0.5% Sigma Albumin from Human serum A1887 (instead of 0.1% BSA). A volume of 25 μl test compound, previously diluted in Binding-Buffer-HSA was placed into each well. After addition of 75 μl Binding-Buffer-HSA, 50 μl of ^3H-PGD2 (at 2.5 nM (220.000 dpm/well) from ANAWA ART0662) was added to each well. Remaining protocol was identical as described above.

eosinophils = experiment: Eosinophil shape change assay with human plasma; assay type: cell-based; settings: human polymorphonuclear cells, 50% human plasma, activated with 100 nM PGD2
Protocol: After obtaining informed consent, blood samples were drawn by venipuncture according to the protocol approved by the ethics committee of Basel, Switzerland. Polymorphonuclear leukocytes (containing eosinophils, basophils and neutrophils) were isolated using the Polymorphprep™ method (Axis-Shield). In brief, anticoagulated whole blood was layered onto a Polymorphprep gradient (density 1.113 g/ml) and centrifuged at 500 g for 30 min. The polymorphonuclear cell fraction was harvested and depleted for erythrocytes by hypotonic saline lysis.
The polymorphonuclear cells were resuspended in assay buffer (1×PBS with Ca^2+/Mg^2+ supplemented with 0.1% BSA, 10 mM HEPES, and 10 mM Glucose, pH 7.4) at 5×10^6 cells/ml and stained with anti-CD49d-APC ((APC=Allophycocyanin) for 1 hour at RT. Test compounds, at various concentrations, were preincubated 10 min in human plasma (anticoagulated with a thrombin inhibitor). Then, human plasma was added to the polymorphonuclear cells to 50% of final assay volume with polymorphonuclear cells at 4×10^6 cells/rd. After incubation for 10 minutes at 37° C., the polymorphonuclear cells were activated for 5 min at 37° C. by addition of PGD2 at 100 nM final concentration. Activation was stopped by addition of 0.5 ml paraformaldehyde (1%).
Immediately after fixation with paraformaldehyde, the samples were analyzed by FACSCanto flow cytometer (BD Biosciences) and target cells were identified by their forward-scatter (FSC) and side-scatter (SSC) characteristics. Eosinophils were identified by the anti-CD49d-APC signal and their characteristic side-scatter (SSC) profile. Shape change responses, indicative of eosinophil activation, were quantified as the percent of cells with an increased forward-scatter.

| SMILES | IC50 (hCRTH2 receptor [1]) [nM] | IC50 (hCRTH2 receptor [2]) [nM] | IC50 (eosinophils; Eosinophil) [nM] | IC50 (eosinophils) [nM] |
| --- | --- | --- | --- | --- |
| O=C(O)Cn1c2c(c3cc(F)ccc31)C[C@@H](N(CC1CC1)c1ncc(Cl)cn1)CC2 [Example 27, (3S)-2-(3-((5-chloropyrimidin-2-yl)(cyclopropylmethyl)amino)-6-fluoro-3,4-dihydro-1H-carbazol-9(2H)-yl)acetic acid] | 1.7 | 6 | 14 |  |
| CN(c1nc2ccc(F)cc2s1)[C@H]1CCc2c(c3cc(F)ccc3n2CC(=O)O)C1 [Example 38, (3S)-2-(6-fluoro-3-((6-fluorobenzo[d]thiazol-2-yl)(methyl)amino)-3,4-dihydro-1H-carbazol-9(2H)-yl)acetic acid] | 1.2 | 9 | 2 |  |
| Cc1csc(N(C)C2CCc3c(c4cc(F)ccc4n3CC(=O)O)C2)n1 (stereo not drawn) [Example 45, 2-(6-fluoro-3-(methyl(4-methylthiazol-2-yl)amino)-3,4-dihydro-1H-carbazol-9(2H)-yl)acetic acid] | 9.7 | 25 | 414 |  |
| O=C(O)Cn1c2c(c3cc(F)ccc31)C[C@@H](Nc1ncc(Cl)cn1)CC2 [Example 3, (3S)-2-(6-fluoro-3-((5-chloropyrimidin-2-yl)amino)-3,4-dihydro-1H-carbazol-9-(2H)-yl)acetic acid] | 4.6 | 23 |  | 41 |
| CN(c1nc2cc(Cl)ccc2o1)[C@H]1CCc2c(c3cc(F)ccc3n2CC(=O)O)C1 [Example 18, (3S)-2-(3-((5-chlorobenzo[d]oxazol-2-yl)(methyl)amino)-6-fluoro-3,4-dihydro-1H-carbazol-9(2H)-yl)acetic acid] | 1.4 | 28 | 6 |  |
| CN(c1ncccn1)[C@H]1CCc2c(c3cc(F)ccc3n2CC(=O)O)C1 [Example 15, (3S)-2-(6-fluoro-3-(methyl(pyrimidin-2-yl)amino)-3,4-dihydro-1H-carbazol-9(2H)-yl)acetic acid] | 9.9 | 35 | 66 |  |
| CN(c1ncc(C(F)(F)F)cn1)[C@H]1CCc2c(c3cc(F)ccc3n2CC(=O)O)C1 [Example 11, (3S)-2-(6-fluoro-3-(methyl(5-(trifluoromethyl)pyrimidin-2-yl)amino)-3,4-dihydro-1H-carbazol-9(2H)-yl)acetic acid] | 2 | 15 | 49 |  |
| CCN(c1ncc(Cl)cn1)[C@H]1CCc2c(c3cc(F)ccc3n2CC(=O)O)C1 [Example 24, (3S)-2-(3-((5-chloropyrimidin-2-yl)(ethyl)amino)-6-fluoro-3,4-dihydro-1H-carbazol-9(2H)-yl)acetic acid] | 1.7 | 19 | 37 |  |
| CN(c1nc2cc(F)ccc2s1)[C@H]1CCc2c(c3cc(F)ccc3n2CC(=O)O)C1 [Example 39, (3S)-2-(6-fluoro-3-((5-fluorobenzo[d]thiazol-2-yl)(methyl)amino)-3,4-dihydro-1H-carbazol-9(2H)-yl)acetic acid] | 3.1 | 6 | 16 |  |
| CN(c1nc2ccc(Cl)cc2s1)[C@H]1CCc2c(c3cc(F)ccc3n2CC(=O)O)C1 [Example 32, (3S)-2-(3-((6-chlorobenzo[d]thiazol-2-yl)(methyl)amino)-6-fluoro-3,4-dihydro-1H-carbazol-9(2H)-yl)acetic acid] | 6.7 | 20 | 33 |  |
| CN(c1nc2ccc(Cl)cc2o1)[C@H]1CCc2c(c3cc(F)ccc3n2CC(=O)O)C1 [Example 40, (3S)-2-(6-fluoro-3-((6-chlorobenzo[d]oxazol-2-yl)(methyl)amino)-3,4-dihydro-1H-carbazol-9(2H)-yl)acetic acid] | 2 | 21 | 75 |  |
